Broadly, the melting point is the temperature, or range, at which the solid turns liquid.

Counter-ions that a name gives are not always drawn. Like-named read-outs stand apart in the source and are kept apart here.

Data set [1] has as its system H1975 tumours. Particulars: for Drug related deaths / Weight Loss Nadir (%): H1975 xenograft, q3dx4, intraperitoneal; for Drug related deaths: lactate buffer pH 4; for Weight Loss Nadir (%): mean nadir relative to day 0 weight.
Data set [2] concerns H1975 cells. Kind of data set: Inhibition of cellular proliferation (sulforhodamine B staining). For orientation: Sulforhodamine B stains cellular protein and so reports cell mass.
For data set [3] the following is noted: pulse radiolysis, determined against methylviologen.
In data set [4] the test system is SKOV3 cells. The data set can be described thus: Inhibition of cellular proliferation (sulforhodamine B staining).
Data set [5] in a line: Fragmentation rate constant of 1-electron reduced prodrugs by pulse radiolysis. It counts as physicochemical. The conditions noted are these: formation of benzyl-type radicals absorbing in the 360-390 nm region.
Excerpt: The rate constants for fragmentation, kfrag, of the 1-electron reduced prodrugs can be measured using pulse radiolysis to observe the time-resolved formation of the absorption spectrum of the benzyl-type radical produced upon fragmentation of the radical anion.
The test system of data set [6] is A431 cells. The data set can be described thus: Inhibition of cellular proliferation (sulforhodamine B staining).
The target in data set [7] is erbB1 (EGFR) (Homo sapiens, UniProt P00533). Kind of data set: Inhibition of erbB1 autophosphorylation in EGF-stimulated intact A431 cells (Western immunoblotting). Particulars: 1 hour treatment, phospho-EGFR (Tyr 1068), β-actin corrected. It counts as cell-based. The procedure: (§1) A431 cells were seeded into 6 well plates (with αMEM+5% FCS). The following day, plates were washed once with serum-free medium and grown for 18 hours in serum-free medium (αMEM) before being exposed to a range of inhibitor or prodrug concentrations for 1 hour and then stimulated for 15 minutes with 100 ng/ml epidermal growth factor (EGF receptor ligand). Next cells were washed with ice cold PBS and lysed in modified RIPA buffer on ice (30 min). Lysates were vortexed and clarify by spinning before protein concentrations of samples was determined by BCA assay. […] All antibodies were diluted in 2% BSA TBS-Tween 0.1%. To detect phospho-EGFR (Tyr 1068) the monoclonal antibody (1:500; Cell Signalling #2234) was incubated overnight at 4° C. and binding was detected with goat-anti-Rabbit-IgG-HRP conjugated secondary antibody (1:5000; Santa Cruz #SC2054; 3 h RT). To detect downstream phospho-p44/42 MAPK(Erk 1/2) (Thr202/Tyr 204) the monoclonal antibody (Cell Signalling #4370) was used at a 1:500 dilution. The blot was then treated with Goat anti-rabbit IgG-HRP conjugated secondary antibody (Santa Cruz Biotechnology, Inc. sc-2054) for three hours at a ratio of 1:5000. To normalise for any inaccuracy in gel loading, each blot was probed with anti-β-actin antibody (Abacus ALS #MAB-1501R, 1:2000 dilution). The following day, the blot was treated with Goat anti-mouse IgG-HRP conjugated secondary antibody (Santa Cruz Biotechnology, Inc. sc-2055) for one hour at a 1:5000 ratio. Protein bands were visualized using Amersham ECL Plus Western Blotting Detection Reagent (GE Healthcare RPN2132). Densitometry was determined using Image J software. Values normalized to β-actin were plotted on SigmaPlot 11.0.
In general terms: Immunoblotting shows a protein as a band on a membrane.

The subject of data set [8] is p44/42 MAPK (Erk1/2). The data set can be described thus: Inhibition of p44/42 MAPK (Erk1/2) phosphorylation in EGF-stimulated intact A431 cells (Western immunoblotting). It counts as cell-based, human. The conditions noted are these: Homo sapiens, A-431, 1 hour treatment, read-out: IC50 p44/42 MAPK(Erk 1/2) phosphorylation (Thr202/Tyr 204). The procedure:
as §1

Where [9] appears, read: read-out: Cellular Growth Inhibition IC50 H1975 Anoxic, initial 4 hours of the 24 hour exposure under anoxic conditions.
Where [10] appears, read: read-out: Cellular Growth Inhibition IC50 H1975 Oxic, 24 hour exposure entirely under oxic conditions, washed, further 4 days.
[11] abbreviates: read-out: Cellular Growth Inhibition IC50 SKOV3 Anoxic, initial 4 hours of the 24 hour exposure under anoxic conditions.
The mark [12] stands for this setting: read-out: Cellular Growth Inhibition IC50 SKOV3 Oxic, 24 hour exposure entirely under oxic conditions, washed, further 4 days.
The mark [13] stands for this setting: read-out: Cellular Growth Inhibition IC50 A431 Anoxic, initial 4 hours of the 24 hour exposure under anoxic conditions.
Setting [14] is: read-out: Cellular Growth Inhibition IC50 A431 Oxic, 24 hour exposure entirely under oxic conditions, washed, further 4 days.

erbB1 (EGFR), sequence (P00533 25-1210): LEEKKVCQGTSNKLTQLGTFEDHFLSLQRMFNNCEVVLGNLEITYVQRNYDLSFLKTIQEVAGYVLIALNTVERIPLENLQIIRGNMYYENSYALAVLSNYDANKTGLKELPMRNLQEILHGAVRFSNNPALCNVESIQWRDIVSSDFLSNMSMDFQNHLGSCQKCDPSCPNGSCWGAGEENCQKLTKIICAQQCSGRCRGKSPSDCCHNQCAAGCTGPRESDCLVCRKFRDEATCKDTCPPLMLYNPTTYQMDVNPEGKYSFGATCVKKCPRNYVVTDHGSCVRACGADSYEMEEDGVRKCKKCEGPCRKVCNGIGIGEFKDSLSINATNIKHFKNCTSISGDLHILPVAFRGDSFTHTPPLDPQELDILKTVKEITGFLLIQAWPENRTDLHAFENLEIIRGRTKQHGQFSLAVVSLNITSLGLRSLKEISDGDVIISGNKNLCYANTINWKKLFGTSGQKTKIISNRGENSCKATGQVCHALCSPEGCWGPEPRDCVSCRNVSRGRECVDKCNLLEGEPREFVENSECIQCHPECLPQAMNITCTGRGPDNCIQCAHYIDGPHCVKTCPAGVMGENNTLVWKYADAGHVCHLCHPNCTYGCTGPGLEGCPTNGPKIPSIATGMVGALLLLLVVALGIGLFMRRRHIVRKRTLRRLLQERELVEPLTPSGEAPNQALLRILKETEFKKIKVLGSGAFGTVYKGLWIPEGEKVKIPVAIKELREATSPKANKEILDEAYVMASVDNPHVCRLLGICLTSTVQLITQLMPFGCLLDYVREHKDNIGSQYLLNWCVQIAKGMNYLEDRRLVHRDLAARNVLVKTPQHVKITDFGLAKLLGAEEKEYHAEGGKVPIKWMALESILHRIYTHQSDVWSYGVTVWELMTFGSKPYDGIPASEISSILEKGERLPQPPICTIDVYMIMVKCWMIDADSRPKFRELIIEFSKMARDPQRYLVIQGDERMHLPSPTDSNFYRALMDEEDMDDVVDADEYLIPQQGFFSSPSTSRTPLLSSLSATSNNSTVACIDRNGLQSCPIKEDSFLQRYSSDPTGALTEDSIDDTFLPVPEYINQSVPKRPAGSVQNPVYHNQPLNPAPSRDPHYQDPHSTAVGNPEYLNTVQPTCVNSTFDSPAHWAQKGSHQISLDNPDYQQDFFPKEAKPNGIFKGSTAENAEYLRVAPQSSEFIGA

Regarding `Cc1nc([N+](=O)[O-])c(C[N+](C)(C)C/C=C/C(=O)Nc2cc3c(Nc4ccc5c(cnn5Cc5cccc(F)c5)c4)ncnc3cn2)n1C` (as salt: bromide) [Compound 14, (2E)-N-[(1,2-dimethyl-4-nitro-1H-imidazol-5-yl)methyl]-4-[(4-{[1-(3-fluorobenzyl)-1H-indazol-5-yl]amino}pyrido[3,4-d]pyrimidin-6-yl)amino]-N,N-dimethyl-4-oxo-2-buten-1-ammonium bromide], the melting point is 188 to 192 °C (dec.).
As for `Cn1cnc([N+](=O)[O-])c1C[N+](C)(C)C/C=C/C(=O)Nc1cc2c(Nc3ccc4c(cnn4Cc4cccc(F)c4)c3)ncnc2cn1` [Compound 13, (2E)-4-[(4-{[1-(3-fluorobenzyl)-1H-indazol-5-yl]amino}pyrido[3,4-d]pyrimidin-6-yl)amino]N,N-dimethyl-N-[(1-methyl-4-nitro-1H-imidazol-5-yl)methyl]-4-oxo-2-buten-1-ammonium bromide], the Drug related deaths in data set [1] stood at 0. Besides, in [1], the “Weight Loss Nadir (%)” value is −4.1 ± 2.5%. In addition, the IC50 in [2] (setting [9]) is 3.3 µM; in data set [2] (setting [10]) it was 92 µM; in data set [4] (setting [11]) it was 1.6 µM; in data set [4] (setting [12]) it was 315 µM; in [6] (setting [13]) it was 0.24 µM; in [6] (setting [14]) it was 6.2 µM. In data set [3], the “E(1)/V 1-electron reduction potential” value is −0.417 V. Moreover, the “kfrag./s^−1 rate constant for fragmentation” value (shortened to “kfrag./s^−1 rate constant”) in data set [5] was determined as 60 ± 10 s⁻¹.
On to `Cn1cnc([N+](=O)[O-])c1C[N+](C)(C)C/C=C/C(=O)Nc1cc2c(Nc3ccc(OCc4ccccn4)c(Cl)c3)ncnc2cn1` [Compound 15, (2E)-4-({4-[3-chloro-4-(2-pyridinylmethoxy)anilino]pyrido[3,4-d]pyrimidin-6-yl}amino)-N,N-dimethyl-N-[(1-methyl-4-nitro-1H-imidazol-5-yl)methyl]-4-oxo-2-buten-1-ammonium bromide], for which the “growth delay of prodrug compared to its cognate kinase inhibitor, result in words” value in data set [1] (H1975 tumours, q3dx4) is on record as “extended period of growth delay”. Moreover, the Drug related deaths in data set [1] is given as 0. Besides, the “Weight Loss Nadir (%)” value in data set [1] is −9.4 ± 3.3%. The IC50 came to 0.43 µM in [2] (setting [9]); 26 µM in data set [2] (setting [10]); 5.29 µM in data set [7]; 0.6 µM in data set [4] (setting [11]); 159 µM in data set [4] (setting [12]); 8.9 µM in [8]. Further, the IC50 worked out at 0.3 µM in data set [6] (setting [13]) and 10 µM in [6] (setting [14]). Moreover, the “E(1)/V 1-electron reduction potential” value in [3] is −0.423 V. In data set [5], the “kfrag./s^−1 rate constant” value came to 60 ± 10 s⁻¹.
`Cn1cnc([N+](=O)[O-])c1C[N+](C)(C)C/C=C/C(=O)Nc1cc2c(Nc3ccc(Cl)c(Cl)c3)ncnc2cn1` [Compound 16, (2E)-4-{[4-(3,4-dichloroanilino)pyrido[3,4-d]pyrimidin-6-yl]amino}-N,N-dimethyl-N-[(1-methyl-4-nitro-1H-imidazol-5-yl)methyl]-4-oxo-2-buten-1-ammonium bromide] gave a Drug related deaths in data set [1] of 0. Moreover, the “Weight Loss Nadir (%)” value in data set [1] is reported as −10.1 ± 0.7%. In addition, the IC50 in data set [2] (setting [9]) is 0.4 µM; in data set [2] (setting [10]) it was 32 µM; in data set [4] (setting [11]) it was 0.53 µM; in [4] (setting [12]) it was 40 µM; in data set [6] (setting [13]), 0.015 µM; in data set [6] (setting [14]), 0.33 µM. Also, in [3], the “E(1)/V 1-electron reduction potential” value is −0.418 V. Besides, the “kfrag./s^−1 rate constant” value in [5] stood at 60 ± 10 s⁻¹.

These data come from US9101632B2, “Kinase inhibitors, prodrug forms thereof and their use in therapy” (AUCKLAND UNISERVICES LIMITED, priority 2009, dated 2015).
